The text below walks through data of patent publication US6716883B1, “Composition useful to treat periodontal disease” (priority 1998, dated 2004).

Experiment [1] has as its system rat bone marrow cultures. In words: APA in rat bone marrow cultures treated with BaP. As to conditions: increasing concentrations of BaP, ten-day old cultures. It counts as cell-based. As for the experimental part:
In this experiment, the effects of the aryl hydrocarbon, benzo-a-pyrene (BaP) on the early events occurring during osteogenesis were determined. Ten-day old rat bone marrow cultures were treated with increasing concentrations of BaP. The effect of this treatment was monitored by APA as set out above.

Experiment [2] concerns rat bone marrow cultures. The experiment is described as follows: Mineral levels in rat bone marrow cultures treated with BaP. The format is cell-based. As to conditions: BaP at 10^−8M.

Consider `c1ccc2c(c1)cc1ccc3cccc4ccc2c1c34` [BaP, benzo-a-pyrene, reference compound], for which, in the experiment with rat bone marrow cultures [1], the “inhibition of alkaline phosphatase” value is “increased inhibition of alkaline phosphatase with increasing BaP concentration”. Moreover, in the experiment on rat bone marrow cultures [2], the “inhibition of mineral levels” value was no more than 90%.
